Results taken from patent publication US20240041042A1, “1-(PYRIDYL)-5-AZINYLPYRAZOLE DERIVATIVES, AND THEIR USE FOR CONTROL OF UNDESIRED PLANT GROWTH” (Bayer Aktiengesellschaft, priority 2020, published 2024).

Experiments:
Type in all cases: in vivo
[1] = system: Lolium rigidum (LOLRI); assay: Post-emergence herbicidal action against LOLRI
In short: (§1)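 Rates were 320 g/ha or below, applied as aqueous WP/EC spray with 0.5% additive (600 l/ha) onto one-leaf-stage plants. About 3 weeks later in the greenhouse, damage was scored visually against untreated plants on a 0–100% scale, where 100% means plants died.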

[2] = system: Polygonum convolvulus (POLCO); assay: Post-emergence herbicidal action against POLCO
In short: as §1

[3] = system: Polygonum convolvulus (POLCO); assay: Pre-emergence herbicidal action against POLCO
In short: (§2)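 Pre-emergence soil-surface spray of compound, formulated as wettable powder or emulsion concentrate, in aqueous suspension or emulsion with 0.5% additive (600 l/ha; rate 320 g/ha or less). Activity rated visually after roughly 3 weeks in the greenhouse as a percentage of untreated controls, 0% meaning no difference.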

[4] = system: Matricaria inodora (MATIN); assay: Post-emergence herbicidal action against MATIN
Experimental: Seeds of monocotyledonous and dicotyledonous weeds and crop plants are placed in sandy loam in plastic or organic planting pots, covered with soil and cultivated in a greenhouse under controlled growth conditions. 2 to 3 weeks after sowing, the test plants are treated at the one-leaf stage. The compounds of the invention, formulated in the form of wettable powders (WP) or as emulsion concentrates (EC), are then sprayed onto the green parts of the plants as aqueous suspension or emulsion with addition of 0.5% additive at a water application rate of 600 l/ha (converted). After the test plants have been kept in the greenhouse under optimum growth conditions for about 3 weeks, the activity of the preparations is rated visually in comparison to untreated controls. For example, 100% activity=the plants have died, 0% activity=like control plants.
Tables B1 to B13 below show the effects of selected compounds of the general formula (I) according to Table 1 on various harmful plants and at an application rate corresponding to 320 g/ha or lower, which were obtained by the experimental procedure mentioned above. The appendices “a”, “b” and “c” give differentiation by dosage used with otherwise the same harmful plants tested.

[5] = system: Echinochloa crus-galli (ECHCG); assay: Post-emergence herbicidal action against ECHCG
In short: as §1

[6] = system: Setaria viridis (SETVI); assay: Post-emergence herbicidal action against SETVI
In short: as §1

[7] = system: Avena fatua (AVEFA); assay: Pre-emergence herbicidal action against AVEFA; conditions: visual scoring after about 3 weeks vs untreated controls
In short: as §2

[8] = system: Verconica persica (VERPE); assay: Post-emergence herbicidal action against VERPE
In short: as §1

[9] = system: Viola tricolor (VIOTR); assay: Post-emergence herbicidal action against VIOTR
In short: as §1

[10] = system: Viola tricolor (VIOTR); assay: Pre-emergence herbicidal action against VIOTR
In short: as §2

[11] = system: Avena fatua (AVEFA); assay: Post-emergence herbicidal action against AVEFA; conditions: visual rating about 3 weeks after treatment
In short: as §1

[12] = system: Matricaria inodora (MATIN); assay: Pre-emergence herbicidal action against MATIN; conditions: dosage 320 g/ha
In short: as §2

[13] = system: Pharbitis purpurea (PHBPU); assay: Pre-emergence herbicidal action against PHBPU
In short: as §2

[14] = system: Oryza sativa (ORYSA); conditions: crop plant compatibility, 80 g/ha, effect in comparison to untreated controls
In short: (§3)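 Test crops were treated 2 to 3 weeks after sowing, once they reached one leaf, by spraying compound in water with 0.5% additive at 600 l/ha. Visual scoring compared them with untreated controls roughly 3 weeks on, and appendices a, b and c denote different doses.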

[15] = system: Zea mays (ZEAMX); conditions: crop plant compatibility, 80 g/ha, effect vs untreated controls
In short: as §3

[16] = system: Alopecurus myosuroides (ALOMY); assay: Pre-emergence herbicidal action against ALOMY; conditions: scored visually after about 3 weeks, 100% = plants have died
In short: as §2

[17] = system: Amaranthus retroflexus (AMARE); assay: Pre-emergence herbicidal action against AMARE; conditions: visual scoring after about 3 weeks vs untreated controls
In short: as §2

[18] = system: Pharbitis purpurea (PHBPU); assay: Post-emergence herbicidal action against PHBPU; conditions: dosage 320 g/ha
In short: as §1

[19] = system: Amaranthus retroflexus (AMARE); assay: Post-emergence herbicidal action against AMARE
In short: as §1

[20] = system: Echinochloa crus-galli (ECHCG); assay: Pre-emergence herbicidal action against ECHCG
In short: as §2

[21] = system: Alopecurus myosuroides (ALOMY); assay: Post-emergence herbicidal action against ALOMY; conditions: visual rating about 3 weeks after treatment vs untreated controls (100% = plants have died, 0% = like control plants)
In short: as §1

[22] = system: Setaria viridis (SETVI); assay: Pre-emergence herbicidal action against SETVI
In short: as §2

[23] = system: Verconica persica (VERPE); assay: Pre-emergence herbicidal action against VERPE; conditions: dosage 320 g/ha
In short: as §2

[24] = system: Lolium rigidum (LOLRI); assay: Pre-emergence herbicidal action against LOLRI
In short: as §2

[25] = system: Abutilon theophrasti (ABUTH); assay: Post-emergence herbicidal action against ABUTH; conditions: visual rating about 3 weeks after treatment vs untreated controls (100% = plants have died, 0% = like control plants)
In short: as §1

[26] = 80 g/ha, visual rating about 3 weeks after treatment vs untreated controls (100% = plants have died, 0% = like control plants)
[27] = 320 g/ha, visual rating about 3 weeks after treatment

Compound | Post-emergence action against LOLRI in % ([1]; dosage 320 g/ha) | Post-emergence action against POLCO in % ([2]; dosage 80 g/ha) | Post-emergence action against POLCO in % ([2]; dosage 320 g/ha) | Pre-emergence action against POLCO in % ([3]; dosage 320 g/ha) | Post-emergence action against MATIN in % ([4]; dosage 320 g/ha) | Post-emergence action against ECHCG in % ([5]; dosage 320 g/ha) | Post-emergence action against SETVI in % ([6]; dosage 80 g/ha) | Post-emergence action against SETVI in % ([6]; dosage 320 g/ha) | Pre-emergence action against AVEFA in % ([7]; 320 g/ha) | Post-emergence action against VERPE in % ([8]; 320 g/ha, VERPE) | Post-emergence action against VIOTR in % ([9]; 320 g/ha) | Pre-emergence action against VIOTR in % ([10]; 320 g/ha, Viola tricolor) | Pre-emergence action against VIOTR in % ([10]; dosage 80 g/ha) | Post-emergence action against AVEFA in % ([11]; 320 g/ha) | Pre-emergence action against MATIN in % [12] | Pre-emergence action against PHBPU in % ([13]; dosage 320 g/ha) | Pre-emergence action against ALOMY ([16]; 320 g/ha) | Pre-emergence action against AMARE in % ([17]; 80 g/ha) | Pre-emergence action against AMARE in % ([17]; 320 g/ha) | Post-emergence action against AMARE in % [19, 26] | further results
CCOC(=O)COc1nn(-c2ncccc2C)c(-c2ccc(F)nc2)c1Br [Example I-321] | 100% | 80% | 90% | 100% | 80% | 90% | 90% | 90% | 90% | 90% | 80% | 100% | 90% | 90% | 100% | 90% | 100% | 100% | 100% | 80% | Post-emergence action against LOLRI in % ([1]; dosage 80 g/ha): 100%; Pre-emergence action against POLCO in % ([3]; dosage 80 g/ha): 90%; Post-emergence action against ECHCG in % ([5]; dosage 80 g/ha): 90%; Post-emergence action against VIOTR in % ([9]; 80 g/ha): 80%; Post-emergence action against AVEFA in % ([11]; 80 g/ha): 90%; Pre-emergence action against PHBPU in % ([13]; dosage 80 g/ha): 80%; Post-emergence action against ORYSA in % [14]: 0%; Post-emergence action against ZEAMX in % [15]: 0%; Post-emergence action against PHBPU in % [18]: 90%; Post-emergence action against AMARE in % [19, 27]: 80%; Pre-emergence action against ECHCG in % ([20]; dosage 80 g/ha): 100%; Pre-emergence action against ECHCG in % ([20]; dosage 320 g/ha): 100%; Post-emergence action against ALOMY in % ([21]; 80 g/ha): 90%; Post-emergence action against ALOMY in % ([21]; 320 g/ha): 100%; Pre-emergence action against SETVI in % ([22]; dosage 320 g/ha): 100%; Pre-emergence action against VERPE in % [23]: 100%; Pre-emergence action against LOLRI in % ([24]; dosage 80 g/ha): 100%; Pre-emergence action against LOLRI in % ([24]; dosage 320 g/ha): 100%
C[C@@H](Oc1nn(-c2ccccn2)c(-c2ccc(F)nc2)c1Cl)C(=O)NCC(=O)O [Example I-338] | 90% | 80% | 80% | 100% | 90% | 80% | 90% | 90% | 90% | 90% | 80% | 100% | 100% | 90% | 80% | 80% | 100% | 100% | 100% | 80% | Pre-emergence action against POLCO in % ([3]; dosage 80 g/ha): 100%; Pre-emergence action against AVEFA in % ([7]; 80 g/ha): 90%; Post-emergence action against ORYSA in % [14]: 0%; Post-emergence action against ZEAMX in % [15]: 0%; Pre-emergence action against ALOMY ([16]; 80 g/ha): 100%; Post-emergence action against AMARE in % [19, 27]: 80%; Pre-emergence action against ECHCG in % ([20]; dosage 80 g/ha): 90%; Pre-emergence action against ECHCG in % ([20]; dosage 320 g/ha): 100%; Post-emergence action against ALOMY in % ([21]; 320 g/ha): 90%; Pre-emergence action against SETVI in % ([22]; dosage 80 g/ha): 100%; Pre-emergence action against SETVI in % ([22]; dosage 320 g/ha): 100%; Pre-emergence action against VERPE in % [23]: 100%; Pre-emergence action against LOLRI in % ([24]; dosage 80 g/ha): 100%; Pre-emergence action against LOLRI in % ([24]; dosage 320 g/ha): 100%
COC(=O)COc1nn(-c2ncccc2F)c(-c2ccc(F)nc2)c1C1CC1 [Example I-42] | 100% | 80% | 90% | 90% | 90% | 90% | 90% | 90% | 100% | 90% | 90% | 100% | 100% | 100% | 100% | 90% | 100% | 90% | 100% | 90% | Post-emergence action against LOLRI in % ([1]; dosage 80 g/ha): 100%; Post-emergence action against MATIN in % ([4]; dosage 80 g/ha): 80%; Post-emergence action against ECHCG in % ([5]; dosage 80 g/ha): 90%; Post-emergence action against VERPE in % ([8]; dosage 80 g/ha): 90%; Post-emergence action against VIOTR in % ([9]; 80 g/ha): 90%; Post-emergence action against ABUTH in % ([25]; 80 g/ha): 90%; Post-emergence action against ABUTH in % ([25]; 320 g/ha): 90%; Post-emergence action against AVEFA in % ([11]; 80 g/ha): 100%; Pre-emergence action against ALOMY ([16]; 80 g/ha): 100%; Post-emergence action against PHBPU in % [18]: 90%; Post-emergence action against AMARE in % [19, 27]: 90%; Pre-emergence action against ECHCG in % ([20]; dosage 80 g/ha): 100%; Pre-emergence action against ECHCG in % ([20]; dosage 320 g/ha): 100%; Post-emergence action against ALOMY in % ([21]; 80 g/ha): 100%; Post-emergence action against ALOMY in % ([21]; 320 g/ha): 100%; Pre-emergence action against SETVI in % ([22]; dosage 80 g/ha): 100%; Pre-emergence action against SETVI in % ([22]; dosage 320 g/ha): 100%; Pre-emergence action against VERPE in % [23]: 100%; Pre-emergence action against LOLRI in % ([24]; dosage 320 g/ha): 100%
